Here are results for 5 compounds from patent US9701685B2, “Spiropyrrolidines as MDM2 inhibitors” (HUDSON BIOPHARMA INC., priority 2014, dated 2017).

Molecules are shown by their SMILES.

One assay deals with GST-tag full length MDM2 (Homo sapiens (Human), UniProt Q00987). Description: MDM2-p53 TR-FRET Binding Assays. As to conditions: MDM2 / biotin p53 peptide. From the text:
MDM2-p53 TR-FRET Binding Assays
Examples are listed in the following.

A further assay deals with SJSA-1. Description: Cell proliferation inhibition (CCK-8) against SJSA-1. The assay is classed as cell-based. As to conditions: SJSA-1 human osteosarcoma cells, 5 days. On the procedure:
Cellular data of selected compounds against SW480 and SJSA-1 was conducted according to the following protocol.
Cells in the logarithmic growth phase were seeded into 96-well plates (Corning, 3599; 180 μL/well; 3000 cells/well for both SW480 and SJSA-1 cell lines) and cultured in an incubator (Thermo, 3111) for 24 h. Cells were then treated in triplicate by adding 20 μL/well solution containing different concentrations of the tested compounds in 5% CO2 at 37° C. for 5 days. After that, cells were treated for additional 4 h by adding 10 μL/well Cell Counting Kit-8 (CCK-8; DojinDo, CK04) solution. Finally, the absorbance was read at 450 nm with a microplate reader spectra-MAX190 (Molecular Devices, Sunnyvale, Calif.). The IC50 value was determined with SofeMax Pro, a software equipped in this reader. The cell proliferation inhibition rate was calculated as: proliferation inhibition (%)=[1-(A450 treated/A450 control)]×100%.
All the tested compounds could be dissolved in DMSO at 10^−2 M (as stock solution). […] The compounds were diluted at 9 3-fold serial concentrations beginning at the initial concentration of 10 μM (i.e., the highest final concentration to treat the cells). The detailed drug dilution protocol is: Add 5 μL stock solution (10^−2 M) into 495 μL medium, transfer 125 μL of the resulting solution (100 μM) into 250 μL medium, and repeat this till the 9th resulting concentration of 15.2 nM. Pipet 20 μL of each drug dilution into cell plates.

Sequence of GST-tag full length MDM2 (Q00987 whole entry): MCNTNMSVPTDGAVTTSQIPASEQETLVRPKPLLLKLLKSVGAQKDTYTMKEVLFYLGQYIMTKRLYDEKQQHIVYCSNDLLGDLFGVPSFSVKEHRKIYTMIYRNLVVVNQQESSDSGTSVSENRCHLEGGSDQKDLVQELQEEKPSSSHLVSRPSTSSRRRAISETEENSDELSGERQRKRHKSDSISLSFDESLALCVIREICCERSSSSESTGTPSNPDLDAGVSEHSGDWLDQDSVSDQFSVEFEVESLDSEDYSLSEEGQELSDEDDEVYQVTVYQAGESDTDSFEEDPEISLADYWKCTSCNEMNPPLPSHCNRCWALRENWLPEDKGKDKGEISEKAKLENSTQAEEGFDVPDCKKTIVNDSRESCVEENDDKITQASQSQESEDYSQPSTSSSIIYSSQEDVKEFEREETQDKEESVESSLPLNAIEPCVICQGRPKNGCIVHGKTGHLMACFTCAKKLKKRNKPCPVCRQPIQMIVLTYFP

For the compound `COc1cc(C(=O)O)ccc1NC(=O)[C@@H]1N[C@@H](CC2(CF)CC2)[C@@]2(C(=O)Nc3cc(Cl)ccc32)[C@H]1c1cccc(Cl)c1F` [Example 76, 4-[[(2′R,3R,3′S,5′S)-6-chloro-3′-(3-chloro-2-fluoro-phenyl)-5′-[[1-(fluoromethyl)cyclopropyl]methyl]-2-oxo-spiro[indoline-3,4′-pyrrolidine]-2′-carbonyl]amino]-3-methoxy-benzoic acid], the IC50 on GST-tag full length MDM2 is at most 7.2 nM; with SJSA-1 (Homo sapiens, SJSA-1, 120 h), at most 20 nM.

With `COc1cc(C(N)=O)ccc1NC(=O)[C@@H]1N[C@@H](C[C@H](C)C(F)(F)F)[C@@]2(C(=O)Nc3cc(Cl)ccc32)[C@H]1c1cccc(Cl)c1F` [Example 66, (2′R,3R,3′S,5′S)-N-(4-carbamoyl-2-methoxy-phenyl)-6-chloro-3′-(3-chloro-2-fluoro-phenyl)-2-oxo-5′-[(2S)-3,3,3-trifluoro-2-methyl-propyl]spiro[indoline-3,4′-pyrrolidine]-2′-carboxamide], the IC50 is at most 3.6 nM at GST-tag full length MDM2 and at most 20 nM in the assay on SJSA-1 (Homo sapiens, SJSA-1, 120 h).

Turning to `CCOC(=O)c1ccc(NC(=O)[C@@H]2N[C@@H](C[C@@H](C)C(F)(F)F)[C@@]3(C(=O)Nc4cc(Cl)ccc43)[C@H]2c2cccc(Cl)c2F)c(OC)c1` [Example 26, ethyl-4-[[(2′R,3′R,3′S,5′S)-6-chloro-3′(3-chloro-2-fluoro-phenyl)-2-oxo-5′-[(2R)-3,3,3-trifluoro-2-methyl-propyl]spiro[indoline-2,4′-pyrrolidine]-2′-carbonyl]amino]-3-methoxy-benzoate], the IC50 was at most 7.2 nM on GST-tag full length MDM2 and at most 500 nM with SJSA-1.

Turning to `COc1cc(C(N)=O)ccc1NC(=O)[C@@H]1N[C@@H](CC(C)(C)CF)[C@@]2(C(=O)Nc3cc(Cl)ccc32)C1c1cccc(Cl)c1F` (mixture of isomers) [Example 20, (4-carbamoyl-2-methoxy-phenyl) (2′R,3R,3′S,5′S)-6-chloro-3′-(3-chloro-2-fluoro-phenyl)-5′-(3-fluoro-2,2-dimethyl-propyl)-2-oxo-spiro[indoline-3,4′-pyrrolidine]-2′-carboxamide], the IC50 was at most 3.6 nM on GST-tag full length MDM2 and at most 71 nM with SJSA-1 (Homo sapiens, SJSA-1, 120 h).

As to `COc1cc(C(N)=O)ccc1NC(=O)[C@@H]1N[C@@H](C[C@H](C)C(F)(F)F)[C@@]2(C(=O)Nc3cc(Cl)ccc32)[C@H]1c1cccc(Cl)c1F` (racemic) [Example 12, (2′R,3R,3′S,5′S)-N-(4-carbamoyl-2-methoxy-phenyl)-6-chloro-3′-(3-chloro-2-fluoro-phenyl)-2-oxo-5′-[(2S)-3,3,3-trifluoro-2-methyl-propyl]spiro[indoline-3,4′-pyrrolidine]-2′-carboxamide], the IC50 on GST-tag full length MDM2 was at most 7.2 nM; in the assay on SJSA-1 (Homo sapiens, SJSA-1, 120 h), at most 71 nM.
